Experimental data: paper PMC4109680, “Identification and Preclinical Pharmacology of the γ-Secretase Modulator BMS-869780” (International Journal of Alzheimer's Disease, 2014)
Read-outs that look alike come from different tables or passages of the source.

System: brain Aβ1-42, brain Aβ1-40, plasma Aβ1-40
Test: Rat intraperitoneal dose response, brain and plasma Aβ 5 hours after dosing
Type: in vivo
Details: for IC50: Rattus norvegicus
Procedure: IC50 determinations for Aβ1-42 and Aβ1-40 in H4-APPsw cultures in 384-well format were determined using homogeneous time-resolved fluorescence immunoassays as previously described. The principle of these assays is illustrated in Figures 1(c) and 1(d). In other experiments using H4-APPsw cultures, Aβ was quantified by ELISA; for Aβ1-42 the combination of monoclonal antibodies was 26D6 and 565-HRP; for Aβ1-40 it was TSD and 26D6-HRP, and for Aβ1-x it was 4G8 and 26D6-HRP. In some experiments a novel 4-plex Aβ electrochemiluminescence immunoassay was used (Mesoscale Discovery catalog number N45ZA-1). Briefly, the 4-plex was carried out in 96-well format, with 4 separate spots of capture antibodies in each well. The 96-well plates were prepared by the manufacturer, with spots of monoclonal antibodies for Aβ1-42, Aβ1-40, and Aβ1-38, and an additional fourth spot of streptavidin in each well. Plates were initially incubated with blocking buffer (5% BSA in phosphate buffered saline, 200 μL per well) for 2 hours at ambient temperature and then with D2A6H-biotin conjugate (50 ng/mL in 1% BSA, phosphate buffered saline, 25 μL per well) for 1 hour. Plates were then rinsed with phosphate buffered saline before addition of experimental samples for determination of Aβ1-42, Aβ1-40, Aβ1-38, and Aβ1-37 levels, following the manufacturer's instructions as for the Aβ 3-plex kit (catalog number K15148E-1). Rat brain extracts for use in the 4-plex assay were made in 0.2% diethylamine, as previously described. For detection of rat Aβ peptides in the 4-plex (Figure 5), 252Q6-sulfo-tag conjugate was used, and for detection of human Aβ peptides from cell cultures 6E10-sulfo-tag conjugate was used. For Aβ in transiently transfected PS1/PS2 dKO fibroblasts, Aβ1-42 was quantified using an ELISA kit (WACO), and Aβ1-40 was quantified by ELISA as described above for H4-APPsw cultures. For triple transgenic mice (3xTg; [63]), human transgenic Aβ1-42 was assayed in brain homogenates using an ELISA kit (WACO). For the rat and mouse experiments illustrated in Figures 7 and 8, brain samples were prepared by solid phase extraction, and endogenous rat brain Aβ1-42 and Aβ1-40 were quantified by ELISA as previously described for wild type mice. For brain extracts made using solid phase extraction, calibration of Aβ was relative, based on the approximately linear response of the assay in the range tested. For brain extracts made in 0.2% diethylamine, Aβ1-42, Aβ1-40, Aβ1-38, and Aβ1-37 concentrations in brain and cell culture samples were determined by fitting the results of immunoassays against calibration curves derived from a range of dilutions of the corresponding synthetic peptides on each assay plate using a quadratic curve fit (Graphpad Prizm 5.0). Aβ1-x was calibrated in the same way against synthetic Aβ1-40 peptide. Results were expressed in units of pM, corrected for sample dilution.
Figure 7 BMS-869780 dose response and evaluation of residual Aβ levels in rat brain. (a) Groups of rats received intraperitoneal (IP) injections of vehicle or BMS-869780 at doses of 100, 30, 10, 3, 1, and 0.3 mg/kg. Additional rats were dosed with GSI BMS-698861 at 30 mg/kg as a positive control for Aβ-lowering. Group sizes were seven rats for each dose of BMS-869780 and 14 rats for vehicle and GSI dose groups. Brain and plasma were harvested 5 hours after dosing. Brain Aβ1-42 (green), brain Aβ1-40 (blue), brain Aβ1-x (black), and plasma Aβ1-40 (red) were determined. Values are expressed as % relative to vehicle group mean. Whiskers represent standard error. ⊗Aβ1-x was not determined in the groups dosed at 3, 1, and 0.3 mg/kg. (b) Brain Aβ1-40 was plotted against brain Aβ1-42 for each rat dosed with BMS-869780 (black ▼) and for each rat dosed with vehicle (grey ●). Values are expressed as % relative to vehicle group mean. Whiskers represent standard error. […]

[1] = 3 mg/kg IP, 5 hours after dosing

COc1cc(Nc2nc3n(n2)CCCC[C@H]3c2ccc(F)cc2)ccc1-n1cnc(Cl)c1 [BMS-869780] was tested, and the “plasma Aβ1-40 lowering” value (0.3 mg/kg IP, 5 hours after dosing) was “ca. 50%”, the “brain Aβ1-40 lowering” value [1] was “ca. 50%” and the “brain Aβ1-42 lowering” value [1] was “ca. 50%”. The “residual Aβ1-40 assay signal at high plasma concentrations (best fit curve)” value (% relative to vehicle) was 11%, the “residual Aβ1-42 assay signal at high plasma concentrations (best fit curve)” value (% relative to vehicle) was 29% and the IC50 (ip, four-parameter fit, 95% confidence interval 44–158 nM, read-out: apparent IC50 (plasma concentration) for plasma Aβ1-40) was 84 nM. The IC50 (ip, four-parameter fit, 95% confidence interval 618–1053 nM, read-out: apparent IC50 (plasma concentration) for brain Aβ1-42) was 807 nM, the IC50 (ip, four-parameter fit, 95% confidence interval 704–1264 nM, read-out: apparent IC50 (plasma concentration) for brain Aβ1-40) was 943 nM and the IC50 (IP, 5 hours, read-out: concentration in plasma associated with 50% lowering of brain Aβ1-42) was roughly 1000 nM. The “brain Aβ1-x levels” value (highest three doses (10, 30, 100 mg/kg IP), 5 hours) was “not affected” and the “lowering of brain Aβ1-42 and Aβ1-40” value (in mice and rats) was no less than 75%.
